Source: patent US20250152585A1, “PHARMACEUTICAL COMPOUND” (Duke Street Bio Limited, priority 2022, published 2025)
Read-outs that look alike come from different tables or passages of the source.

Tests used:
[1] = target: T1, full length N-terminally FLAG-tagged PARP1 (Homo sapiens, UniProt P09874); experiment: PARP1 probe displacement HTRF assay; details: for Selectivity: PARP1 over PARP2, ratio Kd (PARP2)/Kd (PARP1); for Kd: binned Kd
[2] = target: T1, full length N-terminally FLAG-tagged PARP1; experiment: PARP1 biochemical DELFIA assay (auto-PARylation); parameters: recombinant full length human N-terminally FLAG-tagged PARP1
[3] = target: T2, N-terminally FLAG-tagged PARP2 (amino acids 1-583) (Homo sapiens, UniProt Q9UGN5); experiment: PARP2 probe displacement HTRF assay; assay type: binding; details: binned Kd
T2 construct: N-terminally FLAG-tagged PARP2 (amino acids 1-583)
Experimental: Data analysis was performed identical as for PARP1.

[4] = read-out: PARP1 HTRF, probe displacement HTRF
[5] = binned IC50, biochemical auto-PARylation assay
[6] = read-out: PARP1 HTRF, PARP1 probe displacement HTRF
[7] = binned IC50, PARP1 biochemical DELFIA assay
[8] = PARP1 HTRF, probe displacement HTRF
[9] = PARP1 HTRF, PARP1 probe displacement HTRF

T1 sequence (P09874 whole entry): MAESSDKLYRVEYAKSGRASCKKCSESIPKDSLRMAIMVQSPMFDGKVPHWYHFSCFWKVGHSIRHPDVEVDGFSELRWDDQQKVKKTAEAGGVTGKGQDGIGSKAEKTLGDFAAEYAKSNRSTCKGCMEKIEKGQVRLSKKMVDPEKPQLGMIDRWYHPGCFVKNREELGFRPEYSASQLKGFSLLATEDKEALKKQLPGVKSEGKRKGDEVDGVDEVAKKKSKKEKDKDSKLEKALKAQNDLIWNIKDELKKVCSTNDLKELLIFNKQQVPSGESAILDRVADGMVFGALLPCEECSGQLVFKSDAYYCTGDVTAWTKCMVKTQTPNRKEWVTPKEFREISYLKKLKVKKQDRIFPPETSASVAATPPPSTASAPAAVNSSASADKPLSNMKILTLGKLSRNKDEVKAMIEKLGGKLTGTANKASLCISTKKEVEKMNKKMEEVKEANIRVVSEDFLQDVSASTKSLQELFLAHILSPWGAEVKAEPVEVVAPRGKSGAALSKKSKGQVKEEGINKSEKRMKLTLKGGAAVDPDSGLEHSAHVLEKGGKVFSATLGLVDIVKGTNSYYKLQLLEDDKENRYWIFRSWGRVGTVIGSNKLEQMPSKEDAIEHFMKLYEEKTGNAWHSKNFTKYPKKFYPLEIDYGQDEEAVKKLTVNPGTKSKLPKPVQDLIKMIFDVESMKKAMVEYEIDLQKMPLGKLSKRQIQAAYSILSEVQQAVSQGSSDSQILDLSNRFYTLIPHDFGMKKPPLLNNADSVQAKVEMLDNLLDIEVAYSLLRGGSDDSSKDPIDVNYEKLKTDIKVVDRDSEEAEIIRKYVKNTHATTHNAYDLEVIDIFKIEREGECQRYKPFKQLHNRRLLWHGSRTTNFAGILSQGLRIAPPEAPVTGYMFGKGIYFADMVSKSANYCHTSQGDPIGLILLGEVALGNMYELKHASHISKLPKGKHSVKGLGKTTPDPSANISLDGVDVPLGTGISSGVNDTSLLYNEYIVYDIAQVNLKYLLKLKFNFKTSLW
T2 sequence (Q9UGN5 whole entry, the tested form may be a part): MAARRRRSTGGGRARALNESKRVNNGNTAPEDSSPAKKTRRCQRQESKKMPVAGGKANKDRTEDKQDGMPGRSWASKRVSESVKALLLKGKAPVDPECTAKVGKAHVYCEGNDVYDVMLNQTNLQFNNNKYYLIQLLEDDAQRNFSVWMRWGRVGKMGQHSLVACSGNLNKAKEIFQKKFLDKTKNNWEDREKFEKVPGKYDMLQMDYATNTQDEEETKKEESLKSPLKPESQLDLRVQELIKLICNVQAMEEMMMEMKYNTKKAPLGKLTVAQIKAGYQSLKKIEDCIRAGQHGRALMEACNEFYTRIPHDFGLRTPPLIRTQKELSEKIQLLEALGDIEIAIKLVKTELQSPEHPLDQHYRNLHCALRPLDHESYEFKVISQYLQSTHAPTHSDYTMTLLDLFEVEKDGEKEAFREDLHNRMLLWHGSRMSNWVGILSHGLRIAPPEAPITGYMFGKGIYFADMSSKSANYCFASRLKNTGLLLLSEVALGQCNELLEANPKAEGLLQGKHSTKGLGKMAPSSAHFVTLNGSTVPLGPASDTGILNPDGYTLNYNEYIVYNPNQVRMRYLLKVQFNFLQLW

Row | Structure (SMILES) | Kd [1, 4] [nM] | IC50 [2, 5] [nM] | Kd ([3]; probe displacement HTRF) [nM] | Kd [1, 6] [nM] | IC50 [2, 7] [nM] | Kd ([3]; PARP2 probe displacement HTRF) [nM] | Kd [1, 8] [nM] | Kd [1, 9] [nM] | Selectivity ([1]; probe displacement HTRF)
1 | N#Cc1ccc(N2CCC(N3CCC(c4cc5cccc(F)c5c(=O)[nH]4)C3)CC2)cn1 (single isomer, unassigned) [Compound 316b] | 10 to 100 | 10 to 100 | 100 to 1000 |  |  |  |  |  | + (+ indicates a value of 10 to less than 50)
2 | O=c1[nH]c(C2CCN(C3CCN(c4ccc(OC(F)F)nc4)CC3)C2)cc2ccc(F)cc12 (single isomer, unassigned) [Compound 374b] | < 10 | < 10 | 10 to 100 |  |  |  |  |  | ++ (++ indicates a value of 50 to less than 100)
3 | O=C(NC1COC1)c1ccc(N2CCC(N3CCC(c4nc5ccccc5c(=O)[nH]4)C3)CC2)cn1 (racemic) [Compound 229rac] | < 10 | 10 to 100 | 100 to 1000 |  |  |  |  |  | +++ (+++ indicate a value of at least 100)
4 | CNC(=O)c1ccc(N2CCC(N3CCC(C)(c4nc5ccccc5c(=O)[nH]4)C3)CC2)cn1 (single isomer, unassigned) [Compound 67a] |  |  |  | 100 to 1000 | 100 to 1000 | 1000 to 10000 |  |  | + (+ indicates a value of 10 to less than 50)
5 | CNC(=O)c1cnc(N2CCC(N3CCCC(c4nc5ccccc5c(=O)[nH]4)C3)CC2)cn1 (single isomer, unassigned) [Compound 99a] |  |  |  | 1000 to 10000 | 1000 to 10000 | > 10000 |  |  | − (− indicates a value of less than 10)
6 | O=C(NC1CC1)c1ccc(N2CCC(N3CCC(c4cc5ncc(F)cc5c(=O)[nH]4)C3)CC2)cn1 (single isomer, unassigned) [Compound 372b] | < 10 | < 10 | 10 to 100 |  |  |  |  |  | +++ (+++ indicate a value of at least 100)
7 | O=C(NCC(F)(F)F)c1ccc(N2CCC(N3CCCC(c4nc5ccccc5c(=O)[nH]4)C3)CC2)cn1 (single isomer, unassigned) [Compound 115a] |  |  |  | 100 to 1000 | 100 to 1000 | 1000 to 10000 |  |  | + (+ indicates a value of 10 to less than 50)
8 | CS(=O)(=O)Nc1ccc(N2CCC(N3CCC(c4cc5ccccc5c(=O)[nH]4)C3)CC2)cc1 (single isomer, unassigned) [Compound 251a] | 100 to 1000 | 100 to 1000 | 1000 to 10000 |  |  |  |  |  | − (− indicates a value of less than 10)
9 | O=c1[nH]c(C2CCN(C3CCN(c4ccc(Cl)cc4)CC3)C2)nc2ccccc12 (single isomer, unassigned) [Compound 43a] |  |  |  | 10 to 100 | 100 to 1000 | 100 to 1000 |  |  | − (− indicates a value of less than 10)
10 | O=C(NCC(F)(F)F)c1ccc(N2CCC(N3CCC(c4nc5ccccc5c(=O)[nH]4)C3)CC2)cn1 (single isomer, unassigned) [Compound 130b] |  |  |  | < 10 | < 10 | 100 to 1000 |  |  | +++ (+++ indicate a value of at least 100)
11 | CS(=O)(=O)NC(=O)c1ccc(N2CCC(N3CCC(c4cc5ccccc5c(=O)[nH]4)C3)CC2)cn1 (racemic) [Compound 414rac] | 10 to 100 | 10 to 100 | 100 to 1000 |  |  |  |  |  | ++ (++ indicates a value of 50 to less than 100)
12 | O=c1[nH]c(C2CCN(C3CCN(c4ccccc4)CC3)C2)nc2ccccc12 (single isomer, unassigned) [Compound 32a] |  |  |  | 10 to 100 | 10 to 100 | 1000 to 10000 |  |  | + (+ indicates a value of 10 to less than 50)
13 | CNC(=O)c1ccc(N2CCC(N3CCC(c4nc5c(c(C(F)(F)F)cn5C)c(=O)[nH]4)C3)CC2)cn1 (single isomer, unassigned) [Compound 170a] |  |  |  | < 10 | < 10 | < 10 |  |  | − (− indicates a value of less than 10)
14 | CNC(=O)c1ccc(OCCCN2CCC(c3nc4ccccc4c(=O)[nH]3)CC2)cn1 [Compound 2, N-methyl-5-(3-(4-(4-oxo-3,4-dihydroquinazolin-2-yl)piperidin-1-yl)propoxy)picolinamide] |  |  |  |  | < 10 | 1000 to 10000 |  | < 10 | +++ (+++ indicate a value of at least 100)
15 | O=C(NC1CC1)c1ccc(N2CCC(N3CC4(c5nc6cccc(F)c6c(=O)[nH]5)CC3C4)CC2)c(F)n1 [Compound 376] |  | < 10 | 100 to 1000 |  |  |  | < 10 |  | +++ (+++ indicate a value of at least 100)

Continued, in another order:

Row | Kd [1, 4] [nM] | IC50 [2, 5] [nM] | Kd ([3]; probe displacement HTRF) [nM] | Kd [1, 6] [nM] | IC50 [2, 7] [nM] | Kd ([3]; PARP2 probe displacement HTRF) [nM] | Kd [1, 8] [nM] | Kd [1, 9] [nM] | Structure (SMILES) | Selectivity ([1]; probe displacement HTRF)
16 | 10 to 100 | 10 to 100 | 1000 to 10000 |  |  |  |  |  | CCc1ccc(C2CCN(C3CCN(c4cnc(C(=O)NC)cc4C(F)(F)F)CC3)C2)[nH]c1=O (single isomer, unassigned) [Compound 298b] | +++ (+++ indicate a value of at least 100)
17 | < 10 | < 10 | > 10000 |  |  |  |  |  | CCc1ccc(C2CC(=O)N(C3CCN(c4ccc(C(=O)NC)nc4)CC3)C2)[nH]c1=O (racemic) [Compound 406rac] | +++ (+++ indicate a value of at least 100)
18 |  |  |  | 10 to 100 | 10 to 100 | 1000 to 10000 |  |  | CNC(=O)c1ccc(N2CCC(N3CCC(c4cc5ccc(F)cc5c(=O)[nH]4)C3)CC2)nn1 (single isomer, unassigned) [Compound 197b] | +++ (+++ indicate a value of at least 100)
19 |  |  |  | < 10 | < 10 | 100 to 1000 |  |  | CNC(=O)c1ccc(N2CCC(N3CCC(c4cc5ncccc5c(=O)[nH]4)C3)CC2)cn1 (single isomer, unassigned) [Compound 218b] | +++ (+++ indicate a value of at least 100)
20 |  |  |  | 10 to 100 | 10 to 100 | 1000 to 10000 |  |  | CNC(=O)c1ccc(N2CCC(N3CCCC(c4cc5ccccc5c(=O)[nH]4)C3)CC2)cn1 (single isomer, unassigned) [Compound 100b] | +++ (+++ indicate a value of at least 100)
21 |  |  |  | 10 to 100 | 10 to 100 | > 10000 |  |  | CCc1ccc(C2CCN(C3CCN(c4ccc(C(=O)NC)nc4C(F)F)CC3)C2)[nH]c1=O (single isomer, unassigned) [Compound 164b] | +++ (+++ indicate a value of at least 100)
22 |  |  |  | < 10 | < 10 | 1000 to 10000 |  |  | CNC(=O)c1ccc(N2CCC(N3CCC(c4nc5ccc(C(F)(F)F)cc5c(=O)[nH]4)C3)CC2)cn1 (single isomer, unassigned) [Compound 161b] | +++ (+++ indicate a value of at least 100)
23 |  |  |  | 10 to 100 | 10 to 100 | 1000 to 10000 |  |  | CNC(=O)c1ccc(N2CCC(N3CCC(c4nc5ccccc5c(=O)[nH]4)C3)CC2)c(C(F)F)n1 (single isomer, unassigned) [Compound 158b] | +++ (+++ indicate a value of at least 100)
24 | < 10 | < 10 | 100 to 1000 |  |  |  |  |  | N#Cc1nc(C(=O)NC2CC2)ccc1N1CCC(N2CCC(c3cc4ccc(F)cc4c(=O)[nH]3)C2)CC1 (single isomer, unassigned) [Compound 397a] | +++ (+++ indicate a value of at least 100)
25 |  |  |  | < 10 | < 10 | > 10000 |  |  | CNC(=O)c1ccc(N2CCC(N3CCC(c4cc5cccnc5c(=O)[nH]4)C3)CC2)cn1 (racemic) [Compound 203rac] | +++ (+++ indicate a value of at least 100)
26 | < 10 | < 10 | 10 to 100 |  |  |  |  |  | CNC(=O)c1ccc(N2CCC(N3CCC(c4cc5[nH]nc(C(F)(F)F)c5c(=O)[nH]4)C3)CC2)c(F)n1 (single isomer, unassigned) [Compound 280b] | ++ (++ indicates a value of 50 to less than 100)
27 |  | 10 to 100 | > 10000 |  |  |  | < 10 |  | CCc1cnc(C23CC(C2)N(C2CCN(c4ccc(C(=O)NC)nc4C(F)(F)F)CC2)C3)[nH]c1=O [Compound 310] | +++ (+++ indicate a value of at least 100)
28 |  |  |  | < 10 | < 10 | 100 to 1000 |  |  | CNC(=O)c1ccc(N2CCC(N3CCC(c4cc5c(F)cc(F)cc5c(=O)[nH]4)C3)CC2)cn1 (single isomer, unassigned) [Compound 186a] | +++ (+++ indicate a value of at least 100)
29 |  |  |  |  | < 10 | 1000 to 10000 |  | < 10 | CCc1cnc(C2CCN(C3CCN(c4ccc(C(=O)NC)nc4)CC3)C2)[nH]c1=O (racemic) [Compound 42rac] | +++ (+++ indicate a value of at least 100)
30 |  |  |  | 10 to 100 | 10 to 100 | > 10000 |  |  | CCc1nc(C(=O)NC)ccc1N1CCC(N2CCC(c3nc4ccccc4c(=O)[nH]3)C2)CC1 (single isomer, unassigned) [Compound 118b] | ++ (++ indicates a value of 50 to less than 100)
31 | 1000 to 10000 | 1000 to 10000 | 1000 to 10000 |  |  |  |  |  | CNC(=O)c1ccc(N2CCC(N3CCC(c4cc5ccccc5c(=O)[nH]4)C3)CC2)s1 (racemic) [Compound 319rac] | − (− indicates a value of less than 10)
32 |  |  |  | 10 to 100 | 10 to 100 | 1000 to 10000 |  |  | CCc1ccc(C2CCN(C3CCN(c4ccc(C(=O)NC)nc4)CC3)C2)[nH]c1=O (single isomer, unassigned) [Compound 72a] | +++ (+++ indicate a value of at least 100)
33 | < 10 | < 10 | 100 to 1000 |  |  |  |  |  | CC(=O)NC(=O)c1ccc(N2CCC(N3CCC(c4cc5ccccc5c(=O)[nH]4)C3)CC2)cn1 (single isomer, unassigned) [Compound 333a] | +++ (+++ indicate a value of at least 100)
